Assay results published in patent EP0726261A1, “Herbidical 1,2,4 thiadiazoles” (American Cyanamid Company, priority 1995, dated 1996).

Legend:
Format in all cases: in vivo
Hordeum vulgare [1] = experiment: Preemergence herbicidal activity (Example 67); details: pre, 800 g/ha
Procedure, shortened: (§1)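 Soil surface of seeded cups sprayed with compound (800g/ha, 400 L/ha volume) from acetone/0.5% TRITON X-155 solutions diluted in water. Herbicidal effect scored on a rating scale roughly 1-3 weeks later, plants held in greenhouse.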

Alopecurus myosuroides [2] = experiment: Preemergence herbicidal activity (Example 67); details: pre, 800 g/ha
Procedure, shortened: as §1

Triticum aestivum [3] = experiment: Postemergence herbicidal activity (Example 67); details: pos, 800 g/ha
Procedure, shortened: (§2)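 Rating followed 10–21 days of greenhouse growth after treatment. Treatment was a single spray at a dose of 800 g/ha (400 L/ha spray volume) applied to plants 3–6 weeks old, using a water-diluted acetone solution containing 0.5% Triton X-155.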

Zea mays [4] = experiment: Postemergence herbicidal activity (Example 67); details: pos, 800 g/ha
Procedure, shortened: as §2

Amaranthus retroflexus [5] = experiment: Postemergence herbicidal activity (Example 67); details: pos, 800 g/ha
Procedure, shortened: as §2

Ipomoea hederacea [6] = experiment: Postemergence herbicidal activity (Example 67); details: pos, 800 g/ha
Procedure, shortened: as §2

Veronica persica [7] = experiment: Postemergence herbicidal activity (Example 67); details: pos, 800 g/ha
Procedure, shortened: as §2

Chenopodium album [8] = experiment: Postemergence herbicidal activity (Example 67); details: pos, 800 g/ha
Procedure, shortened: as §2

Alopecurus myosuroides [9] = experiment: Postemergence herbicidal activity (Example 67); details: pos, 800 g/ha
Procedure, shortened: as §2

Hordeum vulgare [10] = experiment: Postemergence herbicidal activity (Example 67); details: pos, 800 g/ha
Procedure, shortened: as §2

Setaria viridis [11] = experiment: Postemergence herbicidal activity (Example 67); details: pos, 800 g/ha
Procedure, shortened: as §2

Galium aparine [12] = experiment: Postemergence herbicidal activity (Example 67); details: pos, 800 g/ha
Procedure, shortened: as §2

Abutilon theophrasti [13] = experiment: Postemergence herbicidal activity (Example 67); details: pos, 800 g/ha
Procedure, shortened: as §2

Helianthus annuus [14] = experiment: Postemergence herbicidal activity (Example 67); details: pos, 800 g/ha
Procedure, shortened: as §2

Triticum aestivum [15] = experiment: Preemergence herbicidal activity (Example 67); details: pre, 800 g/ha
Procedure, shortened: as §1

Setaria viridis [16] = experiment: Preemergence herbicidal activity (Example 67); details: pre, 800 g/ha
Procedure, shortened: as §1

Zea mays [17] = experiment: Preemergence herbicidal activity (Example 67); details: pre, 800 g/ha
Procedure, shortened: as §1

Amaranthus retroflexus [18] = experiment: Preemergence herbicidal activity (Example 67); details: pre, 800 g/ha
Procedure, shortened: as §1

Ipomoea hederacea [19] = experiment: Preemergence herbicidal activity (Example 67); details: pre, 800 g/ha
Procedure, shortened: as §1

Veronica persica [20] = experiment: Preemergence herbicidal activity (Example 67); details: pre, 800 g/ha
Procedure, shortened: as §1

Chenopodium album [21] = experiment: Preemergence herbicidal activity (Example 67); details: pre, 800 g/ha
Procedure, shortened: as §1

Galium aparine [22] = experiment: Preemergence herbicidal activity (Example 67); details: pre, 800 g/ha
Procedure, shortened: as §1

Abutilon theophrasti [23] = experiment: Preemergence herbicidal activity (Example 67); details: pre, 800 g/ha
Procedure, shortened: as §1

Helianthus annuus [24] = experiment: Preemergence herbicidal activity (Example 67); details: pre, 800 g/ha
Procedure, shortened: as §1

Question: C[C@H](NC(=O)c1nsc(-c2ccccc2)n1)c1ccccc1 [Example 48, (S)-5-(Phenyl)-[1,2,4]thiadiazole-3-carboxylic acid, 1-(phenylethyl)amide] was tested. Which “HOR VW rating” value (Hordeum vulgare [1]) did it give?
Answer: 0

Question: What about the “ALO MY rating” value (Alopecurus myosuroides [2]) of the same compound?
Answer: 0

Question: And the “TRZ AW rating” value (Triticum aestivum [3])?
Answer: 5 (45-64%)

Question: And the “ZEA MX rating” value (Zea mays [4])?
Answer: 5 (45-64%)

Question: What about the “AMA RE rating” value (Amaranthus retroflexus [5]) of the same compound?
Answer: 7 (80-90%)

Question: What about the “IPO HE rating” value (Ipomoea hederacea [6]) of the same compound?
Answer: 7 (80-90%)

Question: And the “VER PE rating” value (Veronica persica [7])?
Answer: 8 (91-99%)

Question: What about the “CHE AL rating” value (Chenopodium album [8]) of the same compound?
Answer: 7 (80-90%)

Question: What about the “ALO MY rating” value (Alopecurus myosuroides [9]) of the same compound?
Answer: 6 (65-79%)

Question: And the “HOR VW rating” value (Hordeum vulgare [10])?
Answer: 7 (80-90%)

Question: And the “SET VI rating” value (Setaria viridis [11])?
Answer: 8 (91-99%)

Question: And the “GAL AP rating” value (Galium aparine [12])?
Answer: 7 (80-90%)

Question: And the “ABU TH rating” value (Abutilon theophrasti [13])?
Answer: 8 (91-99%)

Question: What about the “HEL AN rating” value (Helianthus annuus [14]) of the same compound?
Answer: 9 (100% effect)

Question: And the “TRZ AW rating” value (Triticum aestivum [15])?
Answer: 2 (6-15%)

Question: What about the “SET VI rating” value (Setaria viridis [16]) of the same compound?
Answer: 0

Question: And the “ZEA MX rating” value (Zea mays [17])?
Answer: 0

Question: What about the “AMA RE rating” value (Amaranthus retroflexus [18]) of the same compound?
Answer: 5 (45-64%)

Question: And the “IPO HE rating” value (Ipomoea hederacea [19])?
Answer: 0

Question: And the “VER PE rating” value (Veronica persica [20])?
Answer: 5 (45-64%)

Question: And the “CHE AL rating” value (Chenopodium album [21])?
Answer: 0

Question: And the “GAL AP rating” value (Galium aparine [22])?
Answer: 0

Question: And the “ABU TH rating” value (Abutilon theophrasti [23])?
Answer: 0

Question: And the “HEL AN rating” value (Helianthus annuus [24])?
Answer: 0

Question: What does the source list for O=C(NCc1cccs1)c1nsc(-c2ccccc2)n1 [Example 49]?
Answer: HOR VW rating (Hordeum vulgare [1]): 0; ALO MY rating (Alopecurus myosuroides [2]): 0; TRZ AW rating (Triticum aestivum [3]): 3 (16-29%); ZEA MX rating (Zea mays [4]): 4 (30-44%); AMA RE rating (Amaranthus retroflexus [5]): 3 (16-29%); IPO HE rating (Ipomoea hederacea [6]): 3 (16-29%); VER PE rating (Veronica persica [7]): 3 (16-29%); CHE AL rating (Chenopodium album [8]): 4 (30-44%); ALO MY rating (Alopecurus myosuroides [9]): 5 (45-64%); HOR VW rating (Hordeum vulgare [10]): 4 (30-44%); SET VI rating (Setaria viridis [11]): 8 (91-99%); GAL AP rating (Galium aparine [12]): 6 (65-79%); ABU TH rating (Abutilon theophrasti [13]): 4 (30-44%); HEL AN rating (Helianthus annuus [14]): 8 (91-99%); TRZ AW rating (Triticum aestivum [15]): 0; SET VI rating (Setaria viridis [16]): 0; ZEA MX rating (Zea mays [17]): 0; AMA RE rating (Amaranthus retroflexus [18]): 0; IPO HE rating (Ipomoea hederacea [19]): 0; VER PE rating (Veronica persica [20]): 0; CHE AL rating (Chenopodium album [21]): 0; GAL AP rating (Galium aparine [22]): 0; ABU TH rating (Abutilon theophrasti [23]): 0; HEL AN rating (Helianthus annuus [24]): 1 (1-5%)

Question: Which results are given for O=C(NCc1cccs1)c1nc(-c2ccccc2F)ns1 [Example 50]?
Answer: HOR VW rating (Hordeum vulgare [1]): 1 (1-5%); ALO MY rating (Alopecurus myosuroides [2]): 3 (16-29%); TRZ AW rating (Triticum aestivum [3]): 1 (1-5%); ZEA MX rating (Zea mays [4]): 0; AMA RE rating (Amaranthus retroflexus [5]): 0; IPO HE rating (Ipomoea hederacea [6]): 0; VER PE rating (Veronica persica [7]): 0; CHE AL rating (Chenopodium album [8]): 3 (16-29%); ALO MY rating (Alopecurus myosuroides [9]): 0; HOR VW rating (Hordeum vulgare [10]): 2 (6-15%); SET VI rating (Setaria viridis [11]): 5 (45-64%); GAL AP rating (Galium aparine [12]): 2 (6-15%); ABU TH rating (Abutilon theophrasti [13]): 0; HEL AN rating (Helianthus annuus [14]): 3 (16-29%); TRZ AW rating (Triticum aestivum [15]): 0; SET VI rating (Setaria viridis [16]): 0; ZEA MX rating (Zea mays [17]): 0; AMA RE rating (Amaranthus retroflexus [18]): 0; IPO HE rating (Ipomoea hederacea [19]): 0; VER PE rating (Veronica persica [20]): 0; CHE AL rating (Chenopodium album [21]): 0; GAL AP rating (Galium aparine [22]): 0; ABU TH rating (Abutilon theophrasti [23]): 0; HEL AN rating (Helianthus annuus [24]): 0

Question: How did the “HOR VW rating” value (Hordeum vulgare [1]) turn out when COc1ccc(-c2nsc(C(=O)Nc3cccc4c3CCCC4)n2)cc1 [Example 55] was run?
Answer: 0

Question: What about the “ALO MY rating” value (Alopecurus myosuroides [2]) of the same compound?
Answer: 0

Question: What about the “TRZ AW rating” value (Triticum aestivum [3]) of the same compound?
Answer: 1 (1-5%)

Question: And the “ZEA MX rating” value (Zea mays [4])?
Answer: 3 (16-29%)

Question: What about the “AMA RE rating” value (Amaranthus retroflexus [5]) of the same compound?
Answer: 0

Question: And the “IPO HE rating” value (Ipomoea hederacea [6])?
Answer: 0

Question: And the “VER PE rating” value (Veronica persica [7])?
Answer: 0

Question: And the “CHE AL rating” value (Chenopodium album [8])?
Answer: 0

Question: And the “ALO MY rating” value (Alopecurus myosuroides [9])?
Answer: 0

Question: And the “HOR VW rating” value (Hordeum vulgare [10])?
Answer: 2 (6-15%)

Question: What about the “SET VI rating” value (Setaria viridis [11]) of the same compound?
Answer: 4 (30-44%)

Question: And the “GAL AP rating” value (Galium aparine [12])?
Answer: 3 (16-29%)

Question: What about the “ABU TH rating” value (Abutilon theophrasti [13]) of the same compound?
Answer: 0

Question: And the “HEL AN rating” value (Helianthus annuus [14])?
Answer: 2 (6-15%)

Question: And the “TRZ AW rating” value (Triticum aestivum [15])?
Answer: 0

Question: And the “SET VI rating” value (Setaria viridis [16])?
Answer: 0

Question: What about the “ZEA MX rating” value (Zea mays [17]) of the same compound?
Answer: 0

Question: And the “AMA RE rating” value (Amaranthus retroflexus [18])?
Answer: 0

Question: What about the “IPO HE rating” value (Ipomoea hederacea [19]) of the same compound?
Answer: 3 (16-29%)

Question: What about the “VER PE rating” value (Veronica persica [20]) of the same compound?
Answer: 2 (6-15%)

Question: And the “CHE AL rating” value (Chenopodium album [21])?
Answer: 0

Question: What about the “GAL AP rating” value (Galium aparine [22]) of the same compound?
Answer: 0

Question: And the “ABU TH rating” value (Abutilon theophrasti [23])?
Answer: 1 (1-5%)

Question: And the “HEL AN rating” value (Helianthus annuus [24])?
Answer: 0
